Holding throughout (format): cell-based
Test [1] relates to Smad2 targets (MMP2, Goosecoid, Furin, MixL). Kind of test: RT-PCR/qPCR of Smad2 responsive genes in AKR-2B cells. As to conditions: 5 ng/mL TGFβ, 24 hours. As to the method: (§1) FIGS. 2A-C. TAT-SH3 inhibits Smad3-dependent responses. (A) AKR-2B cells were transiently transfected with a Smad3 (3TP), Smad2 (ARE), or Smad1/5/8 (BRE) reporter construct, and luciferase activity determined following 12 hours incubation in the absence (−) or presence (+) of the indicated ligand (5 ng/mL TGFβ; 10 ng/mL BMP4) or TAT-SNX9(SH3) fusion polypeptide (1.5 μM). Data represent the mean+/−SEM of three experiments. (B) RT-PCR analysis of Smad3 (PAI-1 and CTGF) and Smad2 (MMP2) responsive gene following 24 hour treatment of AKR-2B cells with the indicated concentration of TAT-SNX9(SH3) fusion polypeptide or 5 ng/mL TGFβ. Loading was verified by GAPDH expression. (C) Soft agar colony formation was performed following seven days growth in the presence (+) or absence (−) of TGFβ (10 ng/mL) or the indicated TAT-SNX9(SH3) fusion polypeptide (1.5 μM). […]
(§2) FIGS. 3A-E. Inhibition of Smad3 signaling by a defined region of the SH3 domain in SNX9. […] (B) Nuclear fractions were prepared and assessed as in FIG. 1B following transduction with the indicated TAT-SNX9(SH3) fusion polypeptide (Left). Quantitation (mean+/−sd) of nuclear pSmad2 or pSmad3 from 2 experiments (Right). (C) Immunofluorescence of nuclear Smad3 was determined as in FIG. 1C from 30 cells in each of two experiments in the absence (−) or presence (+) of 5 ng/mL TGFβ and the indicated TAT-SNX9(SH3) fusion polypeptide (1.5 μM). […]
(Real-time PCR tracks product formation cycle by cycle.)

The subject of another test is AKR-2B cells. The test can be described thus: Smad3-regulated biological responses: scratch assays and soft agar colony formation. The settings on record: FIGS. 4C and 4D: scratch assay (5 ng/mL TGFβ, 24 hours) and soft agar. As to the method:
FIGS. 4A-E. A point mutant of TAT-SH3-2 abolishes the inhibitory action on Smad3 responses. (A) Schematic depicting TAT-SNX9(SH3) fusion polypeptide constructs (Left). * in SH3-2M (mutant) reflects G to V mutations at amino acids 36-38. His pull down of pSmad3 bound to TAT-SNX9(SH3) fusion polypeptides was performed as in FIG. 3A (Middle). AKR-2B cells were transduced for 90 minutes with 1.5 μM of TAT-SH3-2, TAT-SH3-2M, or TAT-LC. Western analysis was performed for the indicated proteins following 24 hour treatment in the absence (−) or presence (+) of TGFβ (5 ng/mL) or SB431542 (10 μM) (Right). (B) qPCR of Smad3 (CTGF and Smad7) and Smad2 (Goosecoid and MixL) responsive genes as in FIG. 3D. Data reflect mean+/−sd from three experiments. […] (E) AKR-2B cells were transiently transfected with a BMP (BRE), EGF (SRE), or PDGF (MMP-1) reporter construct and luciferase activity determined following 12 hour incubation in the absence (−) or presence (+) of the indicated ligand (10 ng/mL BMP4, EGF, or PDGF), inhibitor (10 μM Dorsomophin; 3 μM Lapatinib; 2 μM CP868) or TAT-SNX9(SH3) fusion polypeptide (1.5 μM). […]
Soft agar assays were performed as described elsewhere (Rahimi et al., Cancer Res., 69(1):84-93 (2009)). […] Following 7 days growth at 37° C., the number of colonies>100 μm in diameter were counted using an Optronix Gelcount™ (Oxford Optronics, Milton, Abingdon, UK). […]

The test system of test [2] is Smad3 targets (PAI-1, CTGF, Smad7). The test can be described thus: RT-PCR/qPCR/Western of Smad3 responsive genes in AKR-2B cells. The settings on record: 5 ng/mL TGFβ, 24 hours. As to the method: as §1, §2

“Also recorded” adds a separate entry of the source.

Take “TAT-SH3-2: TAT-SNX9(SH3) fusion polypeptide having SNX9 amino acids 21-51 (31 mer) (TVNEGEIITITNPDVGGGWLEGRNIKGERGL; left off: small tags and cut ends)”: the “induction of Smad2 targets” value in test [1] was “Neither polypeptide impacted the induction of Smad2 targets”. Also, the Smad3-regulated biological responses entry with AKR-2B cells was “inhibitory”. Besides, in test [2], the “TGFβ induction of Smad3 targets / Smad3-dependent transcriptional responses” value was “prevented Smad3-dependent transcriptional responses; also recorded: prevented TGFβ induction of Smad3 targets such as CTGF, PAI-1, and Smad7 to a similar degree as inhibition of TβRI”.

With “TAT-SH3-2M: TAT-SH3-2 with G to V point mutations at amino acids 36-38; inactive TAT-SNX9 peptide unable to bind pSmad3 (TVNEGEIITITNPDVVVVWLEGRNIKGERGL; left off: small tags and cut ends)”, the “induction of Smad2 targets” value in test [1] was “Neither polypeptide impacted the induction of Smad2 targets”. In addition, the Smad3-regulated biological responses entry with AKR-2B cells is reported as “not inhibitory”. Also, in test [2], the “TGFβ induction of Smad3 targets / Smad3-dependent transcriptional responses” value is “abolished the inhibitory effect”.
